# From PubChem BioAssay (NCI)
#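 Cells were grown in 96-well plates and exposed to each compound for 48 hours at five concentrations; endpoints were interpolated linearly between bracketing concentrations, or set to the highest concentration if not reached. GI50 = concentration required for 50% inhibition of growth. TGI: total growth inhibition.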
# Assays:
# Test in all cases: inhibition of tumour cell growth, NCI panel, 48 h
# [1] = system: DMS 114 small cell lung
# [2] = system: KM20L2 colon
# [3] = system: HS 578T breast
# [4] = system: DU-145 prostate
# [5] = system: BT-549 breast
# [6] = system: T-47D breast
# [7] = system: MDA-N
SMILES,TGI [1],TGI [2],GI50 [3],TGI [3],GI50 [4],TGI [4],GI50 [5],TGI [5],GI50 [6],TGI [6],TGI [7]
COc1ccc(NC(=O)c2cc(OC)cc(OC)c2)cc1,> 100 µM,32 µM,–,–,–,–,–,–,–,–,–
C=CCc1cc(OC)c2c(c1)C(O)CC(c1ccc(OC)c(OC)c1)O2 (stereo not given),> 100 µM,> 100 µM,–,–,–,–,–,–,–,–,–
COc1ccc(-c2cc(-c3ccc(Nc4nc(Nc5ccccc5)nc(Nc5ccc(Cl)cc5)n4)cc3)nc(N)c2C#N)cc1,–,–,1.21 µM,5.08 µM,2.41 µM,> 50 µM,0.822 µM,2.49 µM,0.733 µM,1.65 µM,–
O=c1n(CC2CO2)c(=O)n(CC2CO2)n1CC1CO1 (stereo not given),–,–,> 100 µM,> 100 µM,3.58 µM,> 61.3 µM,27.8 µM,> 100 µM,6.64 µM,> 100 µM,–
O=C(O)c1cc(C(=O)O)cc(N2C(=O)c3ccccc3C2=O)c1,–,–,–,> 100 µM,–,> 100 µM,–,> 100 µM,–,> 100 µM,> 100 µM
O=C1/C(=C/c2ccc([N+](=O)[O-])cc2)COc2ccc(O)c(O)c21,–,–,1.94 µM,4.75 µM,1.46 µM,2.85 µM,1.44 µM,3.19 µM,1.32 µM,3.65 µM,–
O=C(CSC(=S)N1CCCCC1)Nc1nc2c(s1)CCCC2,> 100 µM,> 100 µM,–,–,–,–,–,–,–,–,–
COc1cc2c(c(OC)c1O)C(=O)C(OC)C(c1ccc(O)c(O)c1)O2 (stereo not given),–,–,0.0889 µM,46.1 µM,0.374 µM,> 100 µM,0.362 µM,> 100 µM,0.513 µM,92.4 µM,–
CC1=C(C#N)C23C(=O)c4ccccc4C(O)=C2C(=O)C=CC3(O)N1Cc1ccccc1 (stereo not given),–,–,26.2 µM,> 100 µM,35.1 µM,> 100 µM,36.2 µM,> 100 µM,25.8 µM,71.6 µM,–
CCCCCCCCSC1=CC(=O)c2nc3ccccc3c3ccnc1c23,–,–,> 100 µM,> 100 µM,> 100 µM,> 100 µM,> 100 µM,> 100 µM,84.5 µM,> 100 µM,–
Cn1ccnc1C(=O)/C=C/c1ccc(CC(=O)Nc2ccc(Br)cc2)cc1,–,–,7.83 µM,> 16.7 µM,3.93 µM,12.2 µM,2.93 µM,6.43 µM,5.5 µM,> 16.7 µM,–
O=C(NCCNc1nccc(-c2c(-c3cccc(O)c3)nc3sccn23)n1)c1ccccc1O,–,–,3.15 µM,16 µM,5.23 µM,35.5 µM,4.74 µM,34.9 µM,3.65 µM,20.5 µM,–
O=C(Nc1ccc(I)cc1)c1cc([N+](=O)[O-])ccc1O,–,–,3.13 µM,29.3 µM,17 µM,> 100 µM,5.36 µM,27.1 µM,3.87 µM,> 100 µM,–
CSCCCN(CCCSC)CCCSC,–,–,–,–,–,> 100 µM,–,> 100 µM,–,> 100 µM,> 100 µM
COc1ccc(-c2cc(=O)c3ccc(O)cc3o2)c(OC)c1OC,> 100 µM,> 100 µM,–,–,–,–,–,–,–,–,–
Cc1ccc(-c2nnc(-c3ccc4ccccc4c3)o2)cc1,–,–,–,> 100 µM,–,> 100 µM,–,> 93.5 µM,–,> 100 µM,> 100 µM

SMILES,TGI [1],TGI [2],GI50 [3],TGI [3],GI50 [4],TGI [4],GI50 [5],TGI [5],GI50 [6],TGI [6],TGI [7]
CC1CN1P1(N2CC2C)=NP(N2CC2C)(N2CC2C)=NP(N2CC2C)(N2CC2C)=N1 (stereo not given),–,> 50 µM,–,–,–,–,–,–,–,–,–
Nc1cc2nc3ccccc3sc-2cc1=O,–,–,2.21 µM,6.24 µM,1.77 µM,3.25 µM,1.61 µM,3.32 µM,5.96 µM,33.7 µM,–
O=C(CN1CCN(c2cc3c(cc2F)c(=O)c(C(=O)N/N=C/c2ccccc2O)cn3C2CC2)CC1)N/N=C\c1ccccc1O,–,–,8.57 µM,> 100 µM,0.716 µM,> 100 µM,1.51 µM,> 100 µM,0.796 µM,> 100 µM,–
CN(C)c1ccc(-c2cc(-c3ccc(Nc4nc(Nc5ccc(Cl)cc5)nc(Nc5ccc(Cl)cc5)n4)cc3)no2)cc1,–,–,3.97 µM,> 100 µM,3.86 µM,16.4 µM,9.07 µM,48.9 µM,3.69 µM,78.5 µM,–
Clc1cccc(Cc2cn3cc(-c4ccccc4)nc3s2)c1Cl,–,–,17.4 µM,> 100 µM,22.4 µM,> 100 µM,88.2 µM,> 100 µM,0.963 µM,> 100 µM,–
CCNC1C2(CCCCC2)NC(=O)C12CCCCC2 (stereo not given),> 100 µM,> 100 µM,–,–,–,–,–,–,–,–,–
CC(C)=CCCc1c(C)ccc2c1C(=O)C(=O)C(C(C)C)=C2,9.36 µM,> 22 µM,–,–,–,–,–,–,–,–,–
Cc1cc(=O)[nH]c2cc3oc4ccccc4c3cc12,–,–,–,> 100 µM,–,> 100 µM,–,> 100 µM,–,> 100 µM,> 100 µM
O=C(CCl)N1c2ccccc2Oc2ccc3ccccc3c21,–,–,2.29 µM,–,1.17 µM,2.53 µM,1.79 µM,3.56 µM,1.69 µM,4.15 µM,–
CSc1ccc(/C=C2\CN(C)C/C(=C\c3ccc(SC)cc3)C2=O)cc1,> 100 µM,> 100 µM,–,–,–,–,–,–,–,–,–
O=[N+]([O-])c1cnc(Sc2ccncn2)s1,–,–,2.37 µM,5.59 µM,1.8 µM,3.22 µM,4.84 µM,9.55 µM,2.16 µM,4.68 µM,–
CCN(CC)CC(C(=O)Nc1c(C)cccc1C)/C(C)=N\NC(=O)C[N+](C)(C)C (stereo not given),> 100 µM,> 100 µM,–,–,–,–,–,–,–,–,–
COc1ccc(-n2/c(=N/C(=S)N(C)C)ss/c2=N\C(=S)N(C)C)cc1,> 100 µM,> 100 µM,–,–,–,–,–,–,–,–,–
CCCCCCCC(=O)SCC/C=C/[C@@H]1CC(=O)NCc2cccc(n2)C2=N[C@@](C)(CS2)C(=O)N[C@@H](C(C)C)C(=O)N1,–,–,0.378 µM,> 33.3 µM,0.3 µM,> 33.3 µM,5.04 µM,> 33.3 µM,0.412 µM,3 µM,–
CCOC(=O)C1=C(C)CC2C(=O)OC(=O)C2C1(C)C (stereo not given),> 100 µM,–,–,–,–,–,–,–,–,–,–
O[C@H]1[C@H]2c3cc4c(cc3CN3CCC(=C[C@@H]1O)[C@H]23)OCO4,–,–,–,> 28.4 µM,–,–,–,5.43 µM,–,> 21.3 µM,26.7 µM
